Experimental data: PubChem BioAssay (NCI)
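Test compounds were applied to cells in 96-well plates for 48 hours at 5 doses. TGI is the concentration that stops growth completely.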

Experiments:
Assay in all cases: NCI-60 cell line screen, 48 h
TK-10 renal = test system: TK-10 renal
UO-31 renal = test system: UO-31 renal
U251 CNS = test system: U251 CNS
CAKI-1 renal = test system: CAKI-1 renal
786-0 renal = test system: 786-0 renal
HOP-92 NSCLC = test system: HOP-92 NSCLC
SK-MEL-28 melanoma = test system: SK-MEL-28 melanoma
IGROV1 ovarian = test system: IGROV1 ovarian
SF-539 CNS = test system: SF-539 CNS
KM20L2 colon = test system: KM20L2 colon
OVCAR-8 ovarian = test system: OVCAR-8 ovarian
K-562 leukemia = test system: K-562 leukemia
SF-295 CNS = test system: SF-295 CNS
A498 renal = test system: A498 renal
UACC-62 melanoma = test system: UACC-62 melanoma
EKVX NSCLC = test system: EKVX NSCLC
ACHN renal = test system: ACHN renal
SNB-75 CNS = test system: SNB-75 CNS
RPMI-8226 leukemia = test system: RPMI-8226 leukemia
CCRF-CEM leukemia = test system: CCRF-CEM leukemia
HL-60(TB) leukemia = test system: HL-60(TB) leukemia
NCI-H226 lung = test system: NCI-H226 lung
XF 498 CNS = test system: XF 498 CNS
A549 NSCLC = test system: A549 NSCLC
UACC-257 melanoma = test system: UACC-257 melanoma
DLD-1 colon = test system: DLD-1 colon
HOP-62 NSCLC = test system: HOP-62 NSCLC
SK-MEL-2 melanoma = test system: SK-MEL-2 melanoma
SN12C renal = test system: SN12C renal
OVCAR-4 ovarian = test system: OVCAR-4 ovarian
HT29 colon = test system: HT29 colon
HOP-18 NSCLC = test system: HOP-18 NSCLC
SK-OV-3 ovarian = test system: SK-OV-3 ovarian
SNB-19 CNS = test system: SNB-19 CNS
DMS 114 small cell lung = test system: DMS 114 small cell lung
OVCAR-3 ovarian = test system: OVCAR-3 ovarian
MALME-3M melanoma = test system: MALME-3M melanoma
HCC-2998 colon = test system: HCC-2998 colon
NCI-H23 lung = test system: NCI-H23 lung
OVCAR-5 ovarian = test system: OVCAR-5 ovarian
HCT-15 colon = test system: HCT-15 colon
SNB-78 CNS = test system: SNB-78 CNS
M19-MEL melanoma = test system: M19-MEL melanoma
KM12 colon = test system: KM12 colon
SK-MEL-5 melanoma = test system: SK-MEL-5 melanoma
SF-268 CNS = test system: SF-268 CNS
DMS 273 small cell lung = test system: DMS 273 small cell lung
COLO 205 colon = test system: COLO 205 colon
NCI-H522 lung = test system: NCI-H522 lung
M14 melanoma = test system: M14 melanoma
LXFL 529 NSCLC = test system: LXFL 529 NSCLC
SW-620 colon = test system: SW-620 colon
MOLT-4 leukemia = test system: MOLT-4 leukemia
LOX IMVI melanoma = test system: LOX IMVI melanoma
NCI-H460 lung = test system: NCI-H460 lung
HCT-116 colon = test system: HCT-116 colon
RXF 393 renal = test system: RXF 393 renal
RXF-631 renal = test system: RXF-631 renal

Structure (SMILES): O=C1NC(c2ccccc2)(c2ccccc2)C(=O)N1CCCCCCN1C(=O)NC(c2ccccc2)(c2ccccc2)C1=O
- TGI (TK-10 renal): 77 µM
- TGI (UO-31 renal): > 100 µM
- TGI (U251 CNS): > 100 µM
- TGI (CAKI-1 renal): > 100 µM
- TGI (786-0 renal): 49.3 µM
- TGI (HOP-92 NSCLC): 19.9 µM
- TGI (SK-MEL-28 melanoma): 89.2 µM
- TGI (IGROV1 ovarian): > 100 µM
- TGI (SF-539 CNS): 81.3 µM
- TGI (KM20L2 colon): > 100 µM
- TGI (OVCAR-8 ovarian): > 100 µM
- TGI (K-562 leukemia): > 100 µM
- TGI (SF-295 CNS): 81.3 µM
- TGI (A498 renal): > 100 µM
- TGI (UACC-62 melanoma): > 100 µM
- TGI (EKVX NSCLC): > 100 µM
- TGI (ACHN renal): > 100 µM
- TGI (SNB-75 CNS): 19.6 µM
- TGI (RPMI-8226 leukemia): > 100 µM
- TGI (CCRF-CEM leukemia): > 100 µM
- TGI (HL-60(TB) leukemia): > 100 µM
- TGI (NCI-H226 lung): > 100 µM
- TGI (XF 498 CNS): 30.9 µM
- TGI (A549 NSCLC): > 100 µM
- TGI (UACC-257 melanoma): > 100 µM
- TGI (DLD-1 colon): > 100 µM
- TGI (HOP-62 NSCLC): > 100 µM
- TGI (SK-MEL-2 melanoma): 66.2 µM
- TGI (SN12C renal): > 100 µM
- TGI (OVCAR-4 ovarian): 27.6 µM
- TGI (HT29 colon): > 100 µM
- TGI (HOP-18 NSCLC): > 100 µM
- TGI (SK-OV-3 ovarian): 77.2 µM
- TGI (SNB-19 CNS): 72.1 µM
- TGI (DMS 114 small cell lung): > 100 µM
- TGI (OVCAR-3 ovarian): > 100 µM
- TGI (MALME-3M melanoma): 85.2 µM
- TGI (HCC-2998 colon): > 100 µM
- TGI (NCI-H23 lung): 91.5 µM
- TGI (OVCAR-5 ovarian): > 100 µM
- TGI (HCT-15 colon): > 100 µM
- TGI (SNB-78 CNS): > 100 µM
- TGI (M19-MEL melanoma): > 100 µM
- TGI (KM12 colon): > 100 µM
- TGI (SK-MEL-5 melanoma): 57.9 µM
- TGI (SF-268 CNS): > 100 µM
- TGI (DMS 273 small cell lung): > 100 µM
- TGI (COLO 205 colon): > 100 µM
- TGI (NCI-H522 lung): 84.2 µM
- TGI (M14 melanoma): > 100 µM
- TGI (LXFL 529 NSCLC): > 100 µM
- TGI (SW-620 colon): > 100 µM
- TGI (MOLT-4 leukemia): > 100 µM
- TGI (LOX IMVI melanoma): > 100 µM
- TGI (NCI-H460 lung): > 100 µM

Structure (SMILES): CC(C)(C)c1cc(C2c3cc4c(cc3OC(O)(CO)C2C(=O)O)OCO4)cc(C(C)(C)C)c1O (configuration not stated) (tested in a mixture with another compound)
- TGI (TK-10 renal): 45.4 µM
- TGI (UO-31 renal): 26.6 µM
- TGI (U251 CNS): 29.1 µM
- TGI (CAKI-1 renal): 50.3 µM
- TGI (HCT-116 colon): 21.2 µM
- TGI (RXF 393 renal): 29.4 µM
- TGI (786-0 renal): 33.8 µM
- TGI (HOP-92 NSCLC): 43.7 µM
- TGI (SK-MEL-28 melanoma): 28.7 µM
- TGI (IGROV1 ovarian): 48.6 µM
- TGI (SF-539 CNS): 25.8 µM
- TGI (KM20L2 colon): 33.4 µM
- TGI (OVCAR-8 ovarian): 33.9 µM
- TGI (K-562 leukemia): 29.6 µM
- TGI (SF-295 CNS): 30.3 µM
- TGI (UACC-62 melanoma): 18.8 µM
- TGI (EKVX NSCLC): 50.5 µM
- TGI (ACHN renal): 28.2 µM
- TGI (SNB-75 CNS): 22.8 µM
- TGI (RPMI-8226 leukemia): 22.7 µM
- TGI (CCRF-CEM leukemia): 21.9 µM
- TGI (HL-60(TB) leukemia): 38.2 µM
- TGI (A549 NSCLC): 48.1 µM
- TGI (UACC-257 melanoma): 26.4 µM
- TGI (DLD-1 colon): 33.2 µM
- TGI (HOP-62 NSCLC): 53.1 µM
- TGI (SN12C renal): 31 µM
- TGI (OVCAR-4 ovarian): 25.6 µM
- TGI (RXF-631 renal): 43.3 µM
- TGI (HT29 colon): 27.2 µM
- TGI (HOP-18 NSCLC): 20.3 µM
- TGI (SK-OV-3 ovarian): 45.8 µM
- TGI (SNB-19 CNS): 25.7 µM
- TGI (DMS 114 small cell lung): 23.8 µM
- TGI (OVCAR-3 ovarian): 18.9 µM
- TGI (MALME-3M melanoma): 37.3 µM
- TGI (NCI-H23 lung): 29.6 µM
- TGI (HCT-15 colon): 26 µM
- TGI (M19-MEL melanoma): 28.6 µM
- TGI (SK-MEL-5 melanoma): 23.9 µM
- TGI (DMS 273 small cell lung): 41 µM
- TGI (COLO 205 colon): 37.8 µM
- TGI (M14 melanoma): 30.7 µM
- TGI (SW-620 colon): 33.4 µM
- TGI (MOLT-4 leukemia): 20.3 µM
- TGI (LOX IMVI melanoma): 29.1 µM
- TGI (NCI-H460 lung): 33.3 µM
